Measurements taken from paper PMC4493701, “Quantitative and qualitative analysis of the novel antitumor 1,3,4-oxadiazole derivative (GLB) and its metabolites using HPLC-UV and UPLC-QTOF-MS” (Scientific Reports, 2015).
Read-outs that look alike come from different tables or passages of the source.

Legend:
[1] = Pharmacokinetic study in rats after single oral administration of GLB (HPLC-UV in plasma); type: in vivo, Sprague-Dawley rats; settings: for concentration at 0.5 h / concentration at 1 h / concentration at 2 h / concentration at 4 h / concentration at 6 h / concentration at 8 h / concentration at 12 h / concentration at 24 h / concentration at 36 h / concentration at 48 h / concentration at 72 h / concentration at 96 h: oral; for concentration at 0.5 h: 0.5 h after single oral GLB 100 mg/kg; for concentration at 1 h: 1 h after single oral GLB 100 mg/kg; for concentration at 2 h: 2 h after single oral GLB 100 mg/kg; for concentration at 4 h: 4 h after single oral GLB 100 mg/kg; for concentration at 6 h: 6 h after single oral GLB 100 mg/kg; for concentration at 8 h: 8 h after single oral GLB 100 mg/kg; for concentration at 12 h: 12 h after single oral GLB 100 mg/kg; for concentration at 24 h: 24 h after single oral GLB 100 mg/kg; for concentration at 48 h: 48 h after single oral GLB 100 mg/kg; for concentration at 72 h: 72 h after single oral GLB 100 mg/kg; for concentration at 96 h: 96 h after single oral GLB 100 mg/kg; for Tmax / half-life / AUC(0-inf) / AUC(0-t) / Cmax: rat plasma, single oral GLB 100 mg/kg; for AUC(0-t): read-out: AUC(0-96)
Description: The validated bioanalytical method was applied to the detection of GLB concentration in plasma after a single oral administration of GLB (100 mg/kg, n = 6) in rats. At 0.5 h after oral administration, the prototype drug of GLB was detected in rat plasma. The peak concentration of GLB was at 6 h (2.78 ± 0.89 μg/mL) with quantifiable at the 36 h (0.14 ± 0.18 μg/mL). At 96 h time point, low concentration of GLB was still detectable in rat plasma (Fig. 2B).
HPLC-UV analyses were performed with a DIONEX Ultimate 3000 HPLC system (Thermo Fisher Scientific, MA, USA), which included a double-ternary pump (DGP-3600SD), a temperature controlled automatic sampler (WPS-3000SL), a column temperature box (TCC-3000SD), and a ultraviolet (UV) detector (VWD-3400). The UV detection wavelength was set at 300 nm. The chromatographic separation was achieved on a reversed-phase Alltima C18 analytical column (150 mm × 4.6 mm; 5 μm), and the mobile phase was the mixture of acetonitrile and distilled water (65:35, v/v), running at the flow rate of 1.0 mL/min. The temperature of column box was kept at 25 °C. The injection volume was 20 μL. The HPLC data was processed using Chromeleon^TM 6.8 software (Thermo Fisher Scientific, MA, USA).
Sprague-Dawley rats (Male, 210 ± 20 g, 7–8 weeks) were provided by the Department of Experimental Animal, Beijing University (Beijing, China). Environmental controls for the animal room were set at 22 ± 3 °C with 50 ± 20% relative humidity. This animal study was performed in strict accordance with the recommendations in the Guide for the Care and Use of Laboratory Animals of China Association for Laboratory Animal Science. All animal care and experimental protocols were approved by the Animal Care Committee of Peking University Health Science Center. All sacrifice was performed under pentobarbitone anesthesia, and every effort was made to minimize suffering.
Rats were fasted 12 h prior to the study and were allowed access to food 4 h after oral dosing. Eighteen rats were divided randomly into six groups and rats were sampled at interval in each group. The blood samples at each time point were collected from six rats. The rats were dosed with a suspension of GLB (100 mg/kg, in 0.5% sodium carboxymethyl cellulose CMC-Na solution) and the blood samples were collected at the predose, 0.5, 1, 2, 4, 6, 8, 12, 24, 36, 48, 72 and 96 h post-dosing. The blood samples were centrifuged at 2800 rpm (1473 × g) for 20 min and the plasma was stored at −20 °C until analyzed.
The 400 μL plasma sample was transferred into a glass tube, followed by the addition of 25 μL of IS and 2 mL of extraction solvent ethyl acetate. The mixture was vortexed for 3 min to extract GLB and IS from plasma sample and then centrifuged at 2800 rpm (1473 × g) for 20 min. The upper organic phase was transferred into a glass tube. The sample was extracted twice with 2 mL of ethyl acetate for liquid-liquid extraction. The combined upper organic phases were evaporated to dryness at 37 °C under a gentle stream of nitrogen gas. The residue was reconstituted with 100 μL of methanol and was injected 20 μL into the HPLC system. In addition, in order to perform mass spectrometry analyses, the residue was reconstituted with 150 μL of methanol-water (v/v, 1:1), and then centrifuged at 14000 rpm (17968 × g) for 15 min, the upper liquid was transferred into sample vials and 10 μL was injected for UPLC-QTOF/MS analysis.
The pharmacokinetic parameters of GLB were calculated by a non-compartmental pharmacokinetic analysis method using Drug and Statistical Version 3.0 (DAS 3.0) software (the Mathematical Pharmacology Committee, Chinese Pharmacological Society, China). The maximum peak concentration of the drug in plasma (Cmax) and the time to reach the maximum concentration (Tmax) were estimated from the experimental data. The area under the plasma concentration-time curves from 0 to infinity (i.e., AUC0-∞) and from 0 to 96 h (AUC0-96) were calculated by the trapezoidal summation. […]

[2] = tested on: tumor angiogenesis, growth and metastasis; set-up: method as in PMID 15960897; settings: in vivo; cited from earlier work
[3] = male, Sprague-Dawley, rat, plasma, 100 mg/kg, rat, M1/M2 relative to GLB standard curve
[4] = male, Sprague-Dawley, rat, plasma, 100 mg/kg, 36 h after single oral GLB 100 mg/kg, rat, M1/M2 relative to GLB standard curve
[5] = male, Sprague-Dawley, rat, plasma, po, 100 mg/kg, n = 6, read-out: Tmax
[6] = male, Sprague-Dawley, n = 6, M1/M2 relative concentrations from GLB standard curve

SMILES | concentration at 0.5 h [1, 3] [ng/mL] | concentration at 1 h [1, 3] [ng/mL] | concentration at 2 h [1, 3] [ng/mL] | concentration at 4 h [1, 3] [ng/mL] | concentration at 6 h [1, 3] [ng/mL] | concentration at 8 h [1, 3] [ng/mL] | concentration at 12 h [1, 3] [ng/mL] | concentration at 24 h [1, 3] [ng/mL] | concentration at 36 h [1, 4] [ng/mL] | concentration at 48 h [1, 3] [ng/mL] | concentration at 72 h [1, 3] [ng/mL] | concentration at 96 h [1, 3] [ng/mL] | Tmax [1, 5] [h] | half-life ([1]; male, Sprague-Dawley, n = 6) [h] | AUC(0-inf) [1, 6] [ng·h/mL] | AUC(0-t) [1, 6] [ng·h/mL] | further results
CC(=O)N1N=C(c2ccc(Br)cc2)OC1(C1OC(C)(C)OC1C(=O)O)C1(O)COC(C)(C)O1 (centres unmarked) [M1] | 27 ± 14 | 91 ± 21 | 242 ± 55 | 336 ± 59 | 517 ± 113 | 443 ± 137 | 390 ± 114 | 185 ± 182 | 37 ± 15 | 24 ± 20 | 15 ± 9 | 25 ± 11 | 6 | 11.3 ± 5.94 | 10000 ± 3340 | 9660 ± 3380 | Cmax ([1]; male, Sprague-Dawley, n = 6, M1/M2 relative concentrations from GLB standard curve, read-out: Cmax): 540 ± 100 ng/mL; Tmax ([1]; n = 6): 7.33 ± 2.73 h
CC(=O)N1N=C(c2ccc(Br)cc2)OC12C1OC(C)(C)OC1COC21COC(C)(C)O1 (centres unmarked) [GLB, Fructose-based 3-acetyl-2,3-dihydro-1,3,4-oxadiazole] | 43 ± 151 | 673 ± 65 | 1400 ± 210 | 1460 ± 210 | 2780 ± 887 | 1600 ± 656 | 1470 ± 672 | 262 ± 241 | 139 ± 183 | 58 ± 63 | 11 ± 5 | 16 ± 17 | 6 | 9.24 ± 4.74 | 33500 ± 9050 | 33300 ± 9100 | Plasma concentration ([1]; 36 h after single oral GLB 100 mg/kg, rat, M1/M2 relative to GLB standard curve): 140 ± 180 ng/mL; Cmax ([1]; male, Sprague-Dawley, n = 6, text, read-out: Cmax): 2780 ± 890 ng/mL; Cmax ([1]; n = 6, M1/M2 relative concentrations from GLB standard curve): 2780 ± 890 ng/mL; Effect on tumor angiogenesis, growth and metastasis [2]: block the tumor angiogenesis, growth and metastasis in vivo
